Series [1] deals with HKB-11 human lymphoma cells. Kind of series: Alamar Blue antiproliferative assay, HKB-11. Format: cell-based. The note with it: HKB-11, 72 h, single postbiotics, GraphPad Prism nonlinear regression, read-out: IC50 (concentration required to inhibit 50% of cell growth). The method, then:
The cell viability of the HKB-11, Hs 313.T, and HS-5 cells after treatment with different concentrations of the seven different postbiotics, including SCFA salts (magnesium acetate, sodium propionate, and sodium butyrate), UA and UB, purine nucleoside (inosine), and bacteriocin (N), was determined using the Alamar Blue assay as per the method described earlier. Briefly, 100 μL of cells was cultured in 96-well plates at a 3 × 10^5 cells/mL seeding density. After 24 h, the cells were treated with 16,000 µM of each postbiotic except for the urolithins, which were applied at 500 µM using a 1:2 serial dilution across a 10-point dose–response curve, followed by a 72 h incubation. A positive control using doxorubicin was prepared at a concentration of 4 μM, and an untreated control with 0.1% DMSO was added to every plate. At the end of the incubation period, the culture media were removed, and 100 μL of a 0.1 mg/mL Alamar Blue solution (resazurin, prepared as a stock solution at 1 mg/mL in freshly made PBS, followed by a 1:10 dilution with serum-free media) was added to each well. The fluorescence levels were assessed using a microplate spectrophotometer (BMG CLARIOstar, Mornington, VIC, Australia) with an excitation wavelength of 555 nm and emission measurement at 595 nm. The compounds were tested in triplicate, with the untreated control taken as 100% cell viability.
Data were collected and managed using MS Office Excel and GraphPad Prism for statistical analyses and visualisation. Data collection and analyses were carried out in triplicate, and the outcomes were presented as the mean ± standard deviation. Statistical significance between the mean values was determined at p ≤ 0.05 employing a two-way ANOVA. Tukey and Dunnett’s tests were utilised within GraphPad Prism software to perform nonlinear regression and multiple comparisons. Furthermore, GraphPad Prism software computed the IC50 value (representing the drug concentration required to achieve a 50% cell growth inhibition). The experimental groups in the proteomics study were compared statistically using unpaired t-tests, assuming equal variances. Candidate proteins were selected based on an absolute log2 fold change ≥ 0.58 and a Q-value ≤ 0.05. Enrichment analysis was subsequently conducted using Ingenuity Pathway Analysis (IPA), applying a significance threshold of adjusted Q ≤ 0.05 to identify functionally enriched pathways, focusing on those with an absolute z-score of ≥1.

For series [2] the following is noted: cited from earlier work. The text has this: Both N and UB face challenges regarding bioavailability. […] Thus, formulation strategies or delivery systems to enhance systemic exposure warrant exploration in future studies.
For series [3], the system named is HKB-11 lymphoma cells. The series can be described thus: Flow cytometry apoptosis profile, Annexin V-CF Blue / 7-AAD. Format: cell-based, human. The note with it: 24 h. As to the method:
The HKB-11 cells were cultured in T75 cell culture flasks with an initial density of 1 × 10^6 cells per 10 mL at 37 °C in the presence of 5% CO2 for 24 h. The following day, the cell culture media was removed from each flask and replaced with fresh FBS-containing media. […] An FBS-containing medium was used as the untreated control. The flasks were then incubated at 37 °C with 5% CO2 for 24 h. Then, the cell culture media from each flask were collected. Subsequently, trypsin (0.25% w/v) was applied to the flasks for 4 min at 37 °C. The trypsin reaction was neutralised with an equal volume of 10% FBS serum-containing media, and the cells were combined with the previously collected media. The cell pellets were obtained by centrifuging at 500× g for 5 min at room temperature (RT). This procedure was repeated by suspending the cell pellets in 1 mL of PBS each time. The collected cell pellets from each treatment were immediately suspended in 500 μL of 1× binding buffer and gently mixed by pipetting. Annexin V-CF Blue (5 μL) and 7-AAD (5 μL) staining solutions were added to 100 μL of the cell suspension. The stained cells were incubated for 15 min in the dark at RT, after which 400 μL of a 1× assay buffer was added to each cell suspension. Subsequently, the cells were examined using a flow cytometer (Novocyte 3000, ACEA Biosciences Inc., San Diego, CA, USA), and data analysis and processing were performed using NovoExpress software (version 1.5.0, ACEA Biosciences Inc., CA, USA). In the initial step, the cells were gated on forward and side scatter modes to exclude cell aggregates and debris near the origin. The cells were then gated on dot plots, where Annexin V-CF in Pacific Blue was plotted against 7-AAD fluorescence in PerCP. Quadrants were positioned relative to the untreated control, indicating live cells ([…] and −7-AAD) appearing in the lower-left quadrant, early apoptotic cells (+Annexin V and −7-AAD) in the lower-right quadrant, late apoptotic cells (+Annexin V and +7-AAD) in the upper-right quadrant, and necrotic cells (−Annexin V and +7-AAD) in the upper-left quadrant. For statistical analyses and visualisation, the percentage data of cells in each quadrant after different treatments (n = 3) were exported to GraphPad Prism software (version 9.0, San Diego, CA, USA).
Background: Flow cytometry measures light scatter and fluorescence of single cells or particles in a stream.

Regarding `O=c1oc2cc(O)ccc2c2ccccc12` [UB, Urolithin B], in series [1], the IC50 amounted to 87.6 µM. Also, in series [2], the Metabolism result is given as “extensively metabolised” and the Oral bioavailability result was “moderate oral bioavailability”. Also, the “Apoptosis induction compared to the untreated control” value in series [3] (HKB-11, 500 µM, p ≤ 0.0001) is reported as “greater apoptotic induction”.
In the case of “Nisin (ITSISLCTPGCKTGALMGCNMKTATCHCSIHVSK; Lantibiotic nisin-A; UniProt P13068 24-57, looked up) [34-amino-acid lantibiotic peptide (bacteriocin) produced by Lactococcus lactis; purchased]”, in series [1], the IC50 amounted to 1470 µM. Moreover, in series [2], the Proteolytic stability result is “susceptibility to proteolytic degradation”, the “Stability in the gastrointestinal tract” value was “degraded in the gastrointestinal tract” and the Systemic absorption entry is given as “low systemic absorption”. Further, the Apoptosis induction result in series [3] (HKB-11, 3200 µM, p ≤ 0.0001, compared with 8000 μM) was “induced apoptosis with greater potency”. Further, in series [3] (HKB-11, 8000 μM, p ≤ 0.01, apoptotic and necrotic populations elevated), the “Cell death relative to untreated controls” value is on record as “significantly increased cell death”.

(Values after PMC12295306, “Gut Microbial Postbiotics as Potential Therapeutics for Lymphoma: Proteomics Insights of the Synergistic Effects of Nisin and Urolithin B Against Human Lymphoma Cells” (International Journal of Molecular Sciences, 2025).)
